{"source": "patent US20140243403A1", "about": "“TREATING COLORECTAL, PANCREATIC, AND LUNG CANCER” (The General Hospital Corporation, priority 2011, published 2014)", "key": {"[1]": {"test_system": "TOP-FLASH reporter in YAPC cells", "experiment": "TOP-FLASH reporter in YAPC PDAC cells", "type": "cell-based", "conditions": "KRAS-dependent YAPC cells", "from_the_text": "(§1) (E) TOP-FLASH reporter activity in KRAS mutant PDAC cell lines following inhibition of GSK-3 kinase with increasing concentrations of the small molecule inhibitor BIO. PANC-1 are KRAS-independent cells and YAPC are KRAS-dependent cells. Luminescence counts (photons/sec) are plotted on the y-axis. Data are representative of three independent experiments+/−SEM.\n(§2) (F) TOP-FLASH reporter dose-response relationships in PANC-1 and YAPC cells following combined treatment with GSK-3 and TAK1 inhibitors (BIO and 5Z-7-Oxozeaenok respectively). Luminescence counts (photons/sec) are plotted on the y-axis. Data are represented as the means of triplicates+/−SEM.\n(§3) To further test the role of Wnt signaling in this context, experiments were performed using two KRAS mutant pancreatic cancer (PDAC) cell lines, PANC-1 and YAPC, which are APC wild-type. PANC-1 cells are KRAS-independent, whereas YAPC cells are KRAS-dependent, a distinction that has been linked to increased KRAS signaling in YAPC cells (Singh et al., 2009). […] In contrast, PANC-1 cells undergo stronger induction of TOP-FLASH activity with combined GSK-3 and TAK1 inhibition (FIG. 11F, […]). […] Finally, a constitutively-activated mutant of β-catenin (CTNNB1-CA) containing S33Y and S45A missense mutations was introduced into KRAS-dependent SW620 cells. This mutant caused partial losses in both KRAS and TAK1 dependencies (FIGS. 13A-C). […]"}, "[2]": {"test_system": "TOP-FLASH reporter in PANC-1 cells", "experiment": "TOP-FLASH reporter in PANC-1 PDAC cells", "type": "cell-based", "conditions": "KRAS-independent PANC-1 cells", "from_the_text": "as §1, §2, §3"}}, "data": [{"compound": "O=C1Nc2cc(Br)ccc2/C1=C1/Nc2ccccc2/C1=N\\O", "note": "[BIO]", "values": [{"measurement": "TOP-FLASH reporter induction", "setting": "[1]", "value": "strong, dose-dependent TOP-FLASH reporter induction"}, {"measurement": "TOP-FLASH reporter induction", "setting": "[2]", "value": "weak induction"}]}]}
